Results on one molecule are retold here after patent US20060269613A1, “Composition containing nanoparticles containing water-soluble basic drug encpsulated therein” (priority 2003, published 2006).

Each structure is given as a SMILES string.

The data set can be described thus: Ratio of lactone ring-closed TPT over time in 50% human plasma at 37° C. (HPLC). The data set is classed as in vitro ADME. The note with it: 50% human plasma diluted with PBS. The protocol:
Fifty μL of TPT-containing PLA particle formulation or 50 μL of aqueous TPT solution (0.3 mg/mL) containing 50 mg/mL of PEG-4000 and 50 mg/mL of mannitol was freeze-dried. This freeze-dried product (control) and the above-mentioned nanoparticles were each dissolved in 1 mL of 50% human plasma (diluted with PBS), and were incubated at 37° C. For the purpose of investigating the ratio of ring-opening of lactone ring of TPT with lapse of time, 100 μL was taken out from the incubated sample after 0 hour, 2 hours and 4 hours, and was added to 900 μL of methanol. Plasma protein was denatured while the equilibrium of TPT structure was maintained, and, then, the samples were centrifuged at 10000 rpm for 10 minutes so that protein components were precipitated, and, then, the concentration of lactone ring-opened TPT and that of lactone ring-closed TPT in supernatant were measured with HPLC. An aqueous solution of TPT (pH 3; phosphate*hydro-chloride buffer) was used for control.
(§1) Fifty μL of TPT-containing nanoparticle formulation or a 50 μL of aqueous TPT solution (0.3 mg/mL) containing 50 mg/mL of PEG-4000 and 50 mg/mL of mannitol was freeze-dried, and was dissolved in 1 mL of 50% human plasma (diluted with PBS), and were incubated at 37° C. For the purpose of investigating the ratio of ring-opening and ring-closing of lactone ring of TPT with lapse of time, 100 μL of incubated sample was taken out after 0 hour, 2 hours and 4 hours, and was added to 900 μL of methanol. Plasma protein was denatured while the equilibrium of TPT structure was maintained, and, then, the sample was centrifuged at 10000 rpm for 10 minutes so that protein components were precipitated, and, then, the concentration of lactone ring-opened TPT and that of lactone ring-closed TPT in supernatant were measured with HPLC. An aqueous solution of TPT (pH 3; phosphate*hydrochloride buffer) was used for control.
as §1, with “TPT-containing micellar” for “TPT-containing”, “or” for “or a”, “ring-closing” for “ring-closing of lactone ring”, “HPLC.” for “HPLC. An aqueous solution of TPT (pH 3; phosphate*hydrochloride buffer) was used for control.”
as §1, with “nanocapsule particle” for “nanoparticle”, “its freeze-dried product” for “a 50 μL of aqueous TPT solution (0.3 mg/mL) containing 50 mg/mL of PEG-4000 and 50 mg/mL of mannitol was freeze-dried, and”, “ring-closing” for “ring-closing of lactone ring”, “HPLC.” for “HPLC. An aqueous solution of TPT (pH 3; phosphate*hydrochloride buffer) was used for control.”

As to `CC[C@@]1(O)C(=O)OCc2c1cc1n(c2=O)Cc2cc3c(CN(C)C)c(O)ccc3nc2-1` [Control], the “ratio of ring-closed TPT in 50% human plasma, 0 Hour” value is, setting by setting: (Table 1 (Example 1)) 97.5%; (Table 2 (Example 2)) 98.8%; (Table 3 (Example 3)) 98.9%; (Table 4 (Example 5)) 98.2%. The “ratio of ring-closed TPT in 50% human plasma, 2 Hours” value runs as follows: (Table 1 (Example 1)) 24.6%; (Table 2 (Example 2)) 20.8%; (Table 3 (Example 3)) 18.6%; (Table 4 (Example 5)) 14.4%. Moreover, the “ratio of ring-closed TPT in 50% human plasma, 4 Hours” value reads like this: (Table 1 (Example 1)) 19.4%; (Table 2 (Example 2)) 13.4%; (Table 3 (Example 3)) 14.6%; (Table 4 (Example 5)) 11.9%.
